Test results published in patent US20060148009A1, “Prediction and assessment of immunogenicity” (Xencor, Inc., priority 2004, published 2006).

System: MHC class II proteins on B cells (DRB1*0701 DQA1*0201 DQB1*0202)
Experiment: Peptide binding assay: competition of biotinylated EBV280-290 binding to B cells, flow cytometry
Settings: FIG. 29
Procedure: Peptide binding to MHC class II proteins on the surface of Epstein-Barr virus-transformed B lymphocytes was tested by quantitative flow cytometric analysis (Busch et al. 1990), with modifications. Low resolution HLA typed B cell lines (DR2 and DR7) were obtained from the Coriell Institute for Medical Research (Camden, N.J.). Those cell lines were HLA typed at high resolution for DRB1, DQA1 and DQB1. The B cell lines GM03107, GM08605, and Jesthom were selected for binding studies. The following MHC allele and reference peptide combinations were used: DRB1*0101 and influenzae peptide HA307-319, […] (SEQ ID NO:48) (Busch, R. 1991); DRB1*0701 and Epstein-Barr virus peptide EBV280-290, […] (SEQ ID NO:49) (Omiya et al., 2002); DRB1*1501 and myelin basic protein MBP84-100, […] (SEQ ID NO:50) (Fridkis-Hareli et al., 2001). A biotin molecule followed by a caproic acid-caproic acid spacer was added to the N-terminus of the reference peptides. The binding of biotinylated peptides to the MHC molecules was tested at various pH values. The pH 5.5 was used to test competition with IFN-β peptides. Detection of peptide binding was done with streptavidin-AlexaFluor546 (Molecular Probes, Eugene, O.R.) in a PCA-96 flow cell counter (Guava Technologies Inc., Hayward, Calif.). […]

HYLKAKEYSHCAWTIVR was tested, and the “competition of EBV280-290 peptide binding to B cells” value was “dose-dependent competition”.
